Laboratory results as given in publication PMC9220351, “Evaluation of a Conformationally Constrained Indole Carboxamide as a Potential Efflux Pump Inhibitor in Pseudomonas aeruginosa” (Antibiotics, 2022).

What was measured:
[1] = system: 209 P. aeruginosa clinical isolates from three US hospitals; assay: Susceptibility study, Micromyx panel; assay type: cell-based, Pseudomonas aeruginosa
Description: (§1) First, 209 clinical isolates of P. aeruginosa were collected, unbiased of susceptibility, from three US hospitals by Micromyx (now part of Microbiologics; Kalamazoo, MI, USA). IHMA (Monthey, Switzerland) collected 300 P. aeruginosa clinical isolates, also unbiased of susceptibility, from the following 63 countries: Argentina, Australia, Belgium, Brazil, Canada, Chile, Colombia, Costa Rica, Croatia, Czech Republic, Denmark, Dominican Republic, Ecuador, France, Georgia, Germany, Greece, Guatemala, Hong Kong, Hungary, India, Ireland, Israel, Italy, Japan, Jordan, Kazakhstan, Kenya, South Korea, Kuwait, Latvia, Lebanon, Lithuania, Malaysia, Mexico, Morocco, Netherlands, New Zealand, Nigeria, Panama, Philippines, Poland, Portugal, Puerto Rico, Qatar, Romania, Russia, Saudi Arabia, Serbia, Slovenia, South Africa, Spain, Sweden, Switzerland, Taiwan, Thailand, Tunisia, Turkey, Ukraine, United Kingdom, United States, Venezuela, and Vietnam. Isolates came from the following types of infection: genitourinary (urine), gastrointestinal (stomach), gastrointestinal (pancreas), […] (wound), respiratory (sputum), […] (blood), respiratory (bronchoalveolar lavage), […] (burn), respiratory (endotracheal aspirate), bodily fluids (abscess/pus), […] (impetiginous lesions), gastrointestinal (abscess) and respiratory (bronchial brushing). CF patients were not excluded.
(§2) MIC assays were performed as described previously.

[2] = system: 300 P. aeruginosa clinical isolates from 63 countries; assay: Susceptibility study, IHMA panel; assay type: cell-based, Pseudomonas aeruginosa
Description: as §1, §2

P. aeruginosa ATCC 27853 = assay: MIC / antibiotic potentiation assay, wild-type strain
[3] = system: 34 MDR P. aeruginosa clinical isolates (CDC & FDA AR Isolate Bank); assay: microbe, parasite or virus in culture; assay type: cell-based, Pseudomonas aeruginosa; settings: for Levofloxacin MIC fold difference: + labelled EPI […] (TXA09155 head: 50 µg/mL); for Levofloxacin MIC: alone or + labelled EPI […] (TXA09155 head: 50 µg/mL)
Description: P. aeruginosa ATCC 27853 was obtained from the American Type Culture Collection (ATCC; Manassas, VA, USA). P. aeruginosa multidrug-resistant isolates were obtained from the CDC and FDA Antibiotic Resistance Isolate Bank (Atlanta, GA, USA). P. aeruginosa DA7232 (gyrA-T83I, parC-S80L) was a kind gift from Prof. Dan I. Andersson, Uppsala University, Uppsala, Sweden, and has been characterized elsewhere. P. aeruginosa strains K767 (WT), K1455 (mexAB-oprM overexpressed), K2415 (mexXY-oprM overexpressed), and K3698 (oprM∆) were obtained from Prof. Keith Poole, Queen’s University, Kingston, Ontario, Canada and have been characterized elsewhere. Bacterial cells were grown in cation-adjusted Mueller Hinton (CAMH) media, brain heart infusion broth (BHI), or tryptic soy agar (TSA) plates were all obtained from Becton, Dickinson, and Company (BD; Franklin Lakes, NJ, USA). […] Azithromycin was purchased from Tokyo Chemical Industry (Portland, OR, USA). […] Ethidium bromide (EtBr) and glucose were purchased from VWR (Radnor, PA, USA). MC-04,124 and TXA01182 were synthesized at TAXIS Pharmaceuticals. Carbonyl cyanide 3-chlorophenylhydrazone (CCCP) was purchased from Enzo Life Sciences (Farmingdale, NY, USA). DiOC2 (3) and propidium iodide were obtained from Thermo Fisher Scientific (Waltham, MA, USA).
as §2

[4] = TXA09155 fixed […], 209 isolates
[5] = TXA09155 fixed […], 300 isolates

Cl.NC[C@@H]1CN[C@H](CNC(=O)c2cc3ccc(-c4ccc(F)cc4)cc3[nH]2)C1 [TXA09155, N-(((2S,4R)-4-(aminomethyl)pyrrolidine-2-yl)methyl)-6-(4-fluorophenyl)-1H-indole-2-carboxamide hydrochloride salt]
levofloxacin MIC50 in presence of TXA09155 [1, 4]: 0.12 µg/mL
levofloxacin MIC90 in presence of TXA09155 [1, 4]: 2 µg/mL
Cumulative Susceptibility % Strains at 1 ([1]; concentration 1 µg/ml, n: 209): 2%
Cumulative Susceptibility % Strains at 2 ([1]; concentration 2 µg/ml, n: 209): 2%
Cumulative Susceptibility % Strains at 4 ([1]; concentration 4 µg/ml, n: 209): 3%
Cumulative Susceptibility % Strains at 8 ([1]; concentration 8 µg/ml, n: 209): 6%
Cumulative Susceptibility % Strains at 16 ([1]; concentration 16 µg/ml, n: 209): 9%
Cumulative Susceptibility % Strains at 32 ([1]; concentration 32 µg/ml, n: 209): 36%
Cumulative Susceptibility % Strains at >32 ([1]; concentration >32 µg/ml, n: 209): 100%
levofloxacin MIC50 in presence of TXA09155 [2, 5]: 0.06 µg/mL
levofloxacin MIC90 in presence of TXA09155 [2, 5]: 8 µg/mL
Cumulative Susceptibility % Strains at 1 ([2]; concentration 1 µg/ml, n: 300): 2%
Cumulative Susceptibility % Strains at 2 ([2]; concentration 2 µg/ml, n: 300): 6%
Cumulative Susceptibility % Strains at 4 ([2]; concentration 4 µg/ml, n: 300): 7%
Cumulative Susceptibility % Strains at 8 ([2]; concentration 8 µg/ml, n: 300): 7%
Cumulative Susceptibility % Strains at 16 ([2]; concentration 16 µg/ml, n: 300): 9%
Cumulative Susceptibility % Strains at 32 ([2]; concentration 32 µg/ml, n: 300): 13%
Cumulative Susceptibility % Strains at >32 ([2]; concentration >32 µg/ml, n: 300): 100%
MIC (P. aeruginosa ATCC 27853; Pseudomonas aeruginosa, ATCC27853): 50 µg/mL
lowest active concentration for TXA09155 (P. aeruginosa ATCC 27853; antibiotic potentiation): 6.25 µg/mL
levofloxacin MIC50 in presence of EPI ([3]; EPI (label) fixed […], 34 MDR isolates, levofloxacin alone 32): 2 µg/mL
levofloxacin MIC90 in presence of EPI ([3]; EPI (label) fixed […], 34 MDR isolates, levofloxacin alone 64): 8 µg/mL
Levofloxacin MIC fold difference ([3]; strain AR-0229): 32
Levofloxacin MIC ([3]; strain AR-0229): 2 µg/mL
Levofloxacin MIC fold difference ([3]; strain AR-0230): 8
Levofloxacin MIC ([3]; strain AR-0230): 8 µg/mL
Levofloxacin MIC fold difference ([3]; strain AR-0231): 4
Levofloxacin MIC ([3]; strain AR-0231): 16 µg/mL
Levofloxacin MIC fold difference ([3]; strain AR-0232): 16
Levofloxacin MIC ([3]; strain AR-0232): 0.5 µg/mL
Levofloxacin MIC fold difference ([3]; strain AR-0233): 32
Levofloxacin MIC ([3]; strain AR-0233): 0.125 µg/mL
Levofloxacin MIC fold difference ([3]; strain AR-0234): 16
Levofloxacin MIC ([3]; strain AR-0234): 0.5 µg/mL
Levofloxacin MIC fold difference ([3]; strain AR-0236): 8
Levofloxacin MIC ([3]; strain AR-0236): 4 µg/mL
Levofloxacin MIC fold difference ([3]; strain AR-0239): 16
Levofloxacin MIC ([3]; strain AR-0239): 4 µg/mL
Levofloxacin MIC fold difference ([3]; strain AR-0240): 16
Levofloxacin MIC ([3]; strain AR-0240): 8 µg/mL
Levofloxacin MIC fold difference ([3]; strain AR-0241): 8
Levofloxacin MIC ([3]; strain AR-0241): 8 µg/mL
Levofloxacin MIC fold difference ([3]; strain AR-0242): 16
Levofloxacin MIC ([3]; strain AR-0242): 1 µg/mL
Levofloxacin MIC fold difference ([3]; strain AR-0244): 64
Levofloxacin MIC ([3]; strain AR-0244): 2 µg/mL
Levofloxacin MIC fold difference ([3]; strain AR-0245): 8
Levofloxacin MIC ([3]; strain AR-0245): 16 µg/mL
Levofloxacin MIC fold difference ([3]; strain AR-0246): 8
Levofloxacin MIC ([3]; strain AR-0246): 8 µg/mL
Levofloxacin MIC fold difference ([3]; strain AR-0247): 256
Levofloxacin MIC ([3]; strain AR-0247): ≤ 0.008 µg/mL
Levofloxacin MIC fold difference ([3]; strain AR-0248): 32
Levofloxacin MIC ([3]; strain AR-0248): 0.5 µg/mL
Levofloxacin MIC fold difference ([3]; strain AR-0249): 32
Levofloxacin MIC ([3]; strain AR-0249): 2 µg/mL
Levofloxacin MIC fold difference ([3]; strain AR-0250): 8
Levofloxacin MIC ([3]; strain AR-0250): 8 µg/mL
Levofloxacin MIC fold difference ([3]; strain AR-0252): 64
Levofloxacin MIC ([3]; strain AR-0252): 0.5 µg/mL
Levofloxacin MIC fold difference ([3]; strain AR-0253): 64
Levofloxacin MIC ([3]; strain AR-0253): 0.031 µg/mL
Levofloxacin MIC fold difference ([3]; strain AR-0256): 16
Levofloxacin MIC ([3]; strain AR-0256): 0.031 µg/mL
Levofloxacin MIC fold difference ([3]; strain AR-0258): 8
Levofloxacin MIC ([3]; strain AR-0258): 0.062 µg/mL
Levofloxacin MIC fold difference ([3]; strain AR-0259): 8
Levofloxacin MIC ([3]; strain AR-0259): 0.062 µg/mL
Levofloxacin MIC fold difference ([3]; strain AR-0260): 8
Levofloxacin MIC ([3]; strain AR-0260): 8 µg/mL
Levofloxacin MIC fold difference ([3]; strain AR-0261): 32
Levofloxacin MIC ([3]; strain AR-0261): 0.25 µg/mL
Levofloxacin MIC fold difference ([3]; strain AR-0262): 64
Levofloxacin MIC ([3]; strain AR-0262): 0.063 µg/mL
Levofloxacin MIC fold difference ([3]; strain AR-0264): 32
Levofloxacin MIC ([3]; strain AR-0264): 1 µg/mL
Levofloxacin MIC fold difference ([3]; strain AR-0265): 16
Levofloxacin MIC ([3]; strain AR-0265): 4 µg/mL
Levofloxacin MIC fold difference ([3]; strain AR-0266): 16
Levofloxacin MIC ([3]; strain AR-0266): 2 µg/mL
Levofloxacin MIC fold difference ([3]; strain AR-0267): 64
Levofloxacin MIC ([3]; strain AR-0267): 0.5 µg/mL
Levofloxacin MIC fold difference ([3]; strain AR-0269): 16
Levofloxacin MIC ([3]; strain AR-0269): 2 µg/mL
Levofloxacin MIC fold difference ([3]; strain AR-0270): 64
Levofloxacin MIC ([3]; strain AR-0270): 0.5 µg/mL
Levofloxacin MIC fold difference ([3]; strain AR-0271): 8
Levofloxacin MIC ([3]; strain AR-0271): 4 µg/mL
Levofloxacin MIC fold difference ([3]; strain AR-0272): 8
Levofloxacin MIC ([3]; strain AR-0272): 2 µg/mL
